Measured values published in ChEMBL document CHEMBL1201862, “PubChem BioAssay data set” (2004).
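Cultured in 96-well plates, cells were exposed to test compound for 48 hours across five concentrations. GI50 is the concentration that inhibits growth by half.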 Activity calls are given as the source filed them. No stated cut-off is given here; in the data, active = GI50 up to about 1.1 µM and inactive = higher.

What was measured:
Assay in all cases: DTP human tumour cell line panel, 48 h
DLD-1 = test system: DLD-1
DMS-114 = test system: DMS-114
LXFL 529 = test system: LXFL 529
SNB-78 = test system: SNB-78
M19-MEL = test system: M19-MEL
KM-20L2 = test system: KM-20L2
RXF 631 = test system: RXF 631
DMS-273 = test system: DMS-273
HOP-18 = test system: HOP-18

| Compound | GI50 (DLD-1) | GI50 (DMS-114) | GI50 (LXFL 529) | GI50 (SNB-78) | GI50 (M19-MEL) | GI50 (KM-20L2) | GI50 (RXF 631) | GI50 (DMS-273) | GI50 (HOP-18) |
| --- | --- | --- | --- | --- | --- | --- | --- | --- | --- |
| O=C(Nc1ccc(Cl)cc1Cl)C(=O)C(C(=O)c1ccc2ccccc2c1)C1OC(=O)c2ccccc21 (configuration not stated) | 10.7 µM (inactive) | 11.1 µM (inactive) | 3.33 µM (inactive) | 3.33 µM (inactive) | 12.6 µM (inactive) | – | – | – | – |
| COC(=O)C(C)(C)/N=C/N(C)C | > 100 µM (inactive) | > 100 µM (inactive) | > 100 µM (inactive) | > 100 µM (inactive) | > 100 µM (inactive) | > 100 µM (inactive) | > 100 µM (inactive) | > 100 µM (inactive) | > 100 µM (inactive) |
| Cc1cnoc1/N=C1\C=C(Nc2oncc2C)C(=O)c2ccccc21 | > 100 µM (inactive) | 46.8 µM (inactive) | 79.1 µM (inactive) | > 100 µM (inactive) | – | > 100 µM (inactive) | > 100 µM (inactive) | > 100 µM (inactive) | > 100 µM (inactive) |
| COc1cccc(/C=C2\CCC(CN(C)C)C2=O)c1 (configuration not stated) | 2.8 µM (inactive) | 13.9 µM (inactive) | 2.5 µM (inactive) | 21.7 µM (inactive) | 4.84 µM (inactive) | 15.8 µM (inactive) | 6.59 µM (inactive) | 12.2 µM (inactive) | 18.6 µM (inactive) |
| Cn1cccc(C(=O)c2ccccc2)c1=O | > 100 µM (inactive) | > 100 µM (inactive) | > 100 µM (inactive) | > 100 µM (inactive) | > 100 µM (inactive) | > 100 µM (inactive) | – | > 100 µM (inactive) | – |
| Cc1c(/C=N/NC(=O)c2ccc(Cl)cc2)c(=O)n(-c2ccccc2)n1C | > 100 µM (inactive) | > 100 µM (inactive) | > 100 µM (inactive) | > 100 µM (inactive) | > 100 µM (inactive) | > 100 µM (inactive) | – | > 100 µM (inactive) | > 100 µM (inactive) |
| N#CCCC[Si]12OCCN(CCO1)CCO2 | > 100 µM (inactive) | > 100 µM (inactive) | > 100 µM (inactive) | > 100 µM (inactive) | > 100 µM (inactive) | – | – | > 100 µM (inactive) | > 100 µM (inactive) |
| NCCOc1ccc(/C(=C(/Cl)c2ccccc2)c2ccccc2)cc1 | 15.6 µM (inactive) | 12.9 µM (inactive) | 7.1 µM (inactive) | 10 µM (inactive) | 10.7 µM (inactive) | 6.62 µM (inactive) | 11.4 µM (inactive) | 10.6 µM (inactive) | – |
| CC(CN(C)C)/C(=N\Nc1ccccc1)c1ccccc1 (configuration not stated) | 0.256 µM (active) | 0.743 µM (active) | 0.0473 µM (active) | 6.1 µM (inactive) | 1.24 µM (inactive) | 0.132 µM (active) | – | 0.324 µM (active) | 10.7 µM (inactive) |
| Clc1ccccc1C(n1cc(Br)cn1)n1cc(Br)cn1 | 18.6 µM (inactive) | 21.4 µM (inactive) | 95.7 µM (inactive) | > 100 µM (inactive) | 14.4 µM (inactive) | – | > 10 µM (inactive) | 17.8 µM (inactive) | – |
| CC(=O)CC(=O)CCCC(=O)Nc1ccc(Cl)cc1Cl | > 100 µM (inactive) | – | > 100 µM (inactive) | – | – | > 100 µM (inactive) | > 100 µM (inactive) | > 100 µM (inactive) | 25.2 µM (inactive) |
| COC(=O)C1=C(c2ccc3c(c2)OCO3)O[C@H](c2cc(OC)c(OC)c(OC)c2)[C@H]1COC(C)=O | 7.19 µM (inactive) | 1.15 µM (inactive) | 2.94 µM (inactive) | 8.49 µM (inactive) | 2.45 µM (inactive) | 2.14 µM (inactive) | – | 2.64 µM (inactive) | 15.2 µM (inactive) |
| O=C(Nc1nc2ccc([N+](=O)[O-])cc2s1)C(=O)C(C(=O)c1ccncc1)C1OC(=O)c2ccccc21 (configuration not stated) | > 100 µM (inactive) | > 100 µM (inactive) | > 100 µM (inactive) | > 100 µM (inactive) | > 100 µM (inactive) | > 100 µM (inactive) | > 100 µM (inactive) | > 100 µM (inactive) | 42.7 µM (inactive) |
| COc1ccc(S(=O)(=O)N/N=C\c2cc([N+](=O)[O-])cc(I)c2O)c(OC)c1OC | 28.8 µM (inactive) | 25.1 µM (inactive) | > 10 µM (inactive) | 28.6 µM (inactive) | 31.7 µM (inactive) | 36.2 µM (inactive) | – | 32.4 µM (inactive) | 23.3 µM (inactive) |
| Cc1ccc(S(=O)(=O)CC(=O)CC(=O)C(=O)Nc2cccc(C(F)(F)F)c2)cc1 | > 100 µM (inactive) | – | > 100 µM (inactive) | > 100 µM (inactive) | > 100 µM (inactive) | > 100 µM (inactive) | > 100 µM (inactive) | > 100 µM (inactive) | – |
| COc1cc2c(cc1OC)C(C(=O)O)C(c1ccccc1)N(C)C2=O (configuration not stated) | > 100 µM (inactive) | > 100 µM (inactive) | > 100 µM (inactive) | > 100 µM (inactive) | > 100 µM (inactive) | > 100 µM (inactive) | – | – | > 100 µM (inactive) |

| Compound | GI50 (DLD-1) | GI50 (DMS-114) | GI50 (LXFL 529) | GI50 (SNB-78) | GI50 (M19-MEL) | GI50 (KM-20L2) | GI50 (RXF 631) | GI50 (DMS-273) | GI50 (HOP-18) |
| --- | --- | --- | --- | --- | --- | --- | --- | --- | --- |
| CC1=C(C(=O)Nc2ccccc2C)C(c2ccc([N+](=O)[O-])cc2)C(C(=O)Nc2ccccc2C)=C(C)N1 | 50 µM (inactive) | 33.3 µM (inactive) | 35.6 µM (inactive) | – | 64.1 µM (inactive) | 51.9 µM (inactive) | 76.6 µM (inactive) | 43.4 µM (inactive) | 55.2 µM (inactive) |
| CC(=O)OCC1OC(OCc2ccccc2)C(Br)C(OC(C)=O)C1OC(C)=O (configuration not stated) | > 100 µM (inactive) | – | > 100 µM (inactive) | > 100 µM (inactive) | > 100 µM (inactive) | > 100 µM (inactive) | > 100 µM (inactive) | > 100 µM (inactive) | > 100 µM (inactive) |
| CC(=O)C1CC=C(C)CC1 (configuration not stated) | > 100 µM (inactive) | > 100 µM (inactive) | > 100 µM (inactive) | > 100 µM (inactive) | > 100 µM (inactive) | > 100 µM (inactive) | > 100 µM (inactive) | > 100 µM (inactive) | > 100 µM (inactive) |
| Cc1cccc(NC(=O)CC#N)c1Cl | > 100 µM (inactive) | – | > 100 µM (inactive) | > 100 µM (inactive) | > 100 µM (inactive) | > 100 µM (inactive) | – | > 100 µM (inactive) | – |
| O=C1c2ccc3c4ccccc4n(-c4ccccc4)c3c2C(=O)N1c1ccc(Cl)cc1 | > 100 µM (inactive) | > 100 µM (inactive) | > 100 µM (inactive) | > 100 µM (inactive) | > 100 µM (inactive) | > 100 µM (inactive) | > 100 µM (inactive) | > 100 µM (inactive) | – |
| CCCCSN1C(=O)c2ccccc2C1=S | 44.8 µM (inactive) | 45.5 µM (inactive) | – | 49.3 µM (inactive) | 56.2 µM (inactive) | – | > 100 µM (inactive) | 45.3 µM (inactive) | – |
| CCOC1(COP(=O)(OCc2ccccc2)OCc2ccccc2)COC(COP(=O)(OCc2ccccc2)OCc2ccccc2)(OCC)CO1 (configuration not stated) | > 100 µM (inactive) | – | > 100 µM (inactive) | > 100 µM (inactive) | 15.5 µM (inactive) | > 100 µM (inactive) | 9.44 µM (inactive) | > 100 µM (inactive) | > 100 µM (inactive) |
| O=C1C=CC(=O)C2C1Cc1ccccc1C2c1ccccc1 (configuration not stated) | 56.2 µM (inactive) | 22.2 µM (inactive) | 17.3 µM (inactive) | – | 30.1 µM (inactive) | 50 µM (inactive) | – | 58.6 µM (inactive) | 53.6 µM (inactive) |
| CC(=O)O[C@]1(C)OC(=O)[C@@H](C)N1[N+](=O)[O-] | > 100 µM (inactive) | > 100 µM (inactive) | > 100 µM (inactive) | > 100 µM (inactive) | > 100 µM (inactive) | > 100 µM (inactive) | – | 96.6 µM (inactive) | > 100 µM (inactive) |
| COc1ccccc1/C=C1\CCC(Cc2ccccc2)(CN(C)C)C1=O (configuration not stated) | 0.414 µM (active) | 2.23 µM (inactive) | 4.55 µM (inactive) | 2.13 µM (inactive) | 2.98 µM (inactive) | 0.644 µM (active) | 1.85 µM (inactive) | 0.294 µM (active) | > 26.4 µM (inactive) |
| Cc1ccc([N+]2=NC(c3ccc([N+](=O)[O-])cc3)=NN(c3ccccc3)C2)cc1 | 25.7 µM (inactive) | 40.1 µM (inactive) | 42.1 µM (inactive) | 32.5 µM (inactive) | > 100 µM (inactive) | > 100 µM (inactive) | – | 70.6 µM (inactive) | – |
| C=C(C)[C@H](O)C(O)CC(C)[C@@H]1CCC23CC12CCC1[C@@]2(C)CCC(OC(C)=O)C(C)(C)C2CC(OC2OC(COC(C)=O)C(O)C(O)C2O)[C@]13C (some centres not stated) | 5.52 µM (inactive) | 4.91 µM (inactive) | 5.32 µM (inactive) | 7.16 µM (inactive) | 5.24 µM (inactive) | 4.53 µM (inactive) | 6.12 µM (inactive) | 5.66 µM (inactive) | 8.85 µM (inactive) |
| COC1C(CO)OC(n2c3c(Cl)cccc3c3c4c(c5c6cccc(Cl)c6[nH]c5c32)C(=O)NC4=O)C(O)C1O (configuration not stated) | 0.568 µM (active) | 0.258 µM (active) | 0.33 µM (active) | 0.631 µM (active) | 0.274 µM (active) | 0.586 µM (active) | 0.249 µM (active) | 0.208 µM (active) | – |
| CC(C)NC(=O)OCc1c(COC(=O)NC(C)C)c(-c2ccc(Cl)c(Cl)c2)n2c1CCC2 | > 51.5 µM (inactive) | 33.7 µM (inactive) | 3.6 µM (inactive) | 21.2 µM (inactive) | 33.7 µM (inactive) | 35.1 µM (inactive) | – | > 49.2 µM (inactive) | > 61.2 µM (inactive) |
| CCN(CC)CCOC(=O)/C(=C/c1ccc(OC)cc1)c1cc(OC)c(OC)c(OC)c1 | 28.1 µM (inactive) | 4.81 µM (inactive) | 5.45 µM (inactive) | 9.98 µM (inactive) | 7.26 µM (inactive) | 11.9 µM (inactive) | 7.66 µM (inactive) | 4.29 µM (inactive) | 30.4 µM (inactive) |
| Cc1cc(C(=C2C=CC(=[N+](C)C)C=C2)c2ccc([N+](C)(C)C)cc2)ccc1N(C)C | 6.65 µM (inactive) | 4.67 µM (inactive) | 6.98 µM (inactive) | 10.7 µM (inactive) | 5.52 µM (inactive) | 5.48 µM (inactive) | 7.91 µM (inactive) | 5.01 µM (inactive) | – |
